# According to US12503438B2, “Compounds for the treatment of kinase-dependent disorders” (Exelixis, Inc., priority 2019, dated 2025):
# pIC50: −log10 of the molar value.
# Experiments:
# Met = Met (Homo sapiens, UniProt P08581); test: Human Met kinase assay (33P-phosphoryl transfer radiometric, KinaseProfiler); set-up: Human Met (residues R974-S1390 with A1209G and V1290L, 3.4 nM); purchased Eurofins Pharma Discovery Services UK Limited (KinaseProfiler service); conditions: biochemical activity; 10 μM ATP; read-out: c-Met IC50
# Procedure: Kinase activity and compound inhibition were investigated using the ^33P-Phosphoryl transfer radiometric kinase assay, performed using the KinaseProfiler™ service of Eurofins Pharma Discovery Services UK Limited. Dose-response experiments were performed using nine compound concentrations in a 96-well microtiter plate. For each assay, all compounds were prepared to a 50× final assay concentration (50 μM) in 100% DMSO, then diluted in a half-log series, with the final top concentration at 1 μM. This working stock of the compound was added to the assay well as the first component in the reaction, followed by the remaining components as detailed in the following assay protocols below. The positive control wells (100% kinase activity) contain all components of the reaction including 2% DMSO (control for solvent effects), except the compound of interest. Blank wells contain all components of the reaction, with the reference inhibitor, staurosporine. This reference compound was used to abolish kinase activity and generated the 0% kinase activity base-line. IC50 values were calculated by nonlinear regression analysis using the sigmoidal dose-response (variable slope) curve fit on XLFit version 5.3 (ID Business Solutions).
# Human Met (residues R974-S1390 with A1209G and V1290L, 3.4 nM) was incubated with 8 mM MOPS pH 7.0, 0.2 mM EDTA, 250 μM KKKGQEEEYVFIE, 1 mM sodium orthovanadate, 5 mM […], 10 mM magnesium acetate, and 10 μM [γ-^33P-ATP]. The reaction was initiated by the addition of the Mg/ATP mix. After incubation for 40 minutes at room temperature, the reaction was stopped by the addition of phosphoric acid to a concentration of 0.5%. A reaction aliquot of 10 μL was then spotted onto a P30 filtermat and washed four times for 4 minutes in 0.425% phosphoric acid and once in methanol prior to drying and scintillation counting. Incorporated ^33P was measured using the Wallac Microbeta scintillation counter (Perkin Elmer).
# Mer = biological target: T1, Mer (Homo sapiens, UniProt Q12866); test: Mer autophosphorylation ELISA in transient transfected 293A cells; type: cell-based; conditions: cellular activity; MERTK-transfected 293A cells, phospho-Mer ELISA
# T1 construct: host or cells: 293A cells (Thermo Fisher #R70507)
# T1 sequence (Q12866 21-999): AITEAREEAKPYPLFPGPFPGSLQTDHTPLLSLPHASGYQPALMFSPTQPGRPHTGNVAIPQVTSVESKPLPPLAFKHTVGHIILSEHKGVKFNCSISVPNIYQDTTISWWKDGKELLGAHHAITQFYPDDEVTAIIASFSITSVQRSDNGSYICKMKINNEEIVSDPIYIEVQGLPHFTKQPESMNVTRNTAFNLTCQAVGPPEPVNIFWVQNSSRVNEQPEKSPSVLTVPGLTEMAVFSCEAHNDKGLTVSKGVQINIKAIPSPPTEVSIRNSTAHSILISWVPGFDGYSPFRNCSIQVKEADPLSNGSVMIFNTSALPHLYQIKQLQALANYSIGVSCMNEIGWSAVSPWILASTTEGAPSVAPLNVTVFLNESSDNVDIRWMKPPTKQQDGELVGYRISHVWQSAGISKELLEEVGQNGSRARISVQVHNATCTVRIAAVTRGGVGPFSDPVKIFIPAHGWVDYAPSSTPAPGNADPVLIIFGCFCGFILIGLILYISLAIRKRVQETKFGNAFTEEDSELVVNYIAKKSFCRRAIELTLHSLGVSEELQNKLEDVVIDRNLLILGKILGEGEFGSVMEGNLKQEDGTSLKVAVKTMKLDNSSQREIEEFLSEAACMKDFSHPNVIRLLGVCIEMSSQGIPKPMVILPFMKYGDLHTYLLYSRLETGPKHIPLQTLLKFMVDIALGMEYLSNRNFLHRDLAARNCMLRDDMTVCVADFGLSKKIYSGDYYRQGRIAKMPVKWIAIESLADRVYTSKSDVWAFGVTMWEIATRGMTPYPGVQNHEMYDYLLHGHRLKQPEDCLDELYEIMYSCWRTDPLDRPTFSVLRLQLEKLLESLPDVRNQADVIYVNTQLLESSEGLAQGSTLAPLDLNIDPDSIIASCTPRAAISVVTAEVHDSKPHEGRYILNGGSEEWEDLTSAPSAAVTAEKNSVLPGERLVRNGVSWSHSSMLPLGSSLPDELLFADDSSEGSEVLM
# Method in brief: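 293A cells transiently transfected with human MERTK DNA, then treated 1 h with 8-point compound dilutions in serum-free medium (0.3% DMSO). Phospho-Mer in lysates quantified by sandwich ELISA against phospho-Mer standard; normalised to DMSO (100%) and reference inhibitor (0%), IC50 from 4-parameter logistic fit.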
# Met, sequence (P08581 974-1390): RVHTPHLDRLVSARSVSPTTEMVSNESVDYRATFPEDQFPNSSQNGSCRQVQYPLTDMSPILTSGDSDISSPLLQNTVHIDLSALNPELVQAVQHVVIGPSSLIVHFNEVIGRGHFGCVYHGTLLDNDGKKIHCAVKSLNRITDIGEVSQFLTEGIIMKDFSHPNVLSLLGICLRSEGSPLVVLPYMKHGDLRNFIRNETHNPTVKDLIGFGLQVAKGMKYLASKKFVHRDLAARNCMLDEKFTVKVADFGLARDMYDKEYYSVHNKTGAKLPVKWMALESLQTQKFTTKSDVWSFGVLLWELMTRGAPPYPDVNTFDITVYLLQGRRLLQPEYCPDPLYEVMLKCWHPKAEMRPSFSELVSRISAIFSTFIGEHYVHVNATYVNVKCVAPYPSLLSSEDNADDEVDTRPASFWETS
pIC50 (Met),pIC50 (Mer),SMILES
≥ 8.00,≥ 8.00,"O=C(Nc1ccc(F)cc1)C1(C(=O)Nc2ccc(Oc3ccnc4cc(-c5cnn(CCN6CCOCC6)c5)ccc34)cc2)CC1 [Compound 19, 1-N′-(4-Fluorophenyl)-1-N-[4-[7-[1-(2-morpholin-4-ylethyl)pyrazol-4-yl]quinolin-4-yl]oxyphenyl]cyclopropane-1,1-dicarboxamide]"
7.00 to 8.00,7.00 to 8.00,"O=C(Nc1ccc(F)cc1)C1(C(=O)Nc2ccc(Oc3ccnc4cc(-c5ccn(C(F)F)n5)ccc34)cc2)CC1 [Compound 84, 1-N-[4-[7-[1-(Difluoromethyl)pyrazol-3-yl]quinolin-4-yl]oxyphenyl]-1-N′-(4-fluorophenyl)cyclopropane-1,1-dicarboxamide]"
≥ 8.00,7.00 to 8.00,"O=C(Nc1ccc(F)cc1)C1(C(=O)Nc2ccc(Oc3ccnc4cc(-c5cnn(C6CCNCC6)c5)ccc34)cc2)CC1 [Compound 60, 1-N′-(4-Fluorophenyl)-1-N-[4-[7-(1-piperidin-4-ylpyrazol-4-yl)quinolin-4-yl]oxyphenyl]cyclopropane-1,1-dicarboxamide]"
≥ 8.00,≥ 8.00,"O=C(Nc1ccc(F)cc1)C1(C(=O)Nc2ccc(Oc3ccnc4cc(-c5cnc[nH]5)ccc34)cc2)CC1 [Compound 72, 1-N′-(4-Fluorophenyl)-1-N-[4-[7-(1H-imidazol-5-yl)quinolin-4-yl]oxyphenyl]cyclopropane-1,1-dicarboxamide]"
7.00 to 8.00,7.00 to 8.00,"O=C(Nc1ccc(F)cc1)C1(C(=O)Nc2ccc(Oc3ccnc4cc(-c5ccccn5)ccc34)cc2)CC1 [Compound 85, 1-N′-(4-Fluorophenyl)-1-N-[4-(7-pyridin-2-ylquinolin-4-yl)oxyphenyl]cyclopropane-1,1-dicarboxamide]"
≥ 8.00,7.00 to 8.00,"Cn1nccc1-c1ccc2c(Oc3ccc(NC(=O)C4(C(=O)Nc5ccc(F)cc5)CC4)cc3)ccnc2c1 [Compound 54, 1-N′-(4-Fluorophenyl)-1-N-[4-[7-(2-methylpyrazol-3-yl)quinolin-4-yl]oxyphenyl]cyclopropane-1,1-dicarboxamide]"
≥ 8.00,7.00 to 8.00,"O=C(Nc1ccc(F)cc1)C1(C(=O)Nc2ccc(Oc3ccnc4cc(-c5ccn[nH]5)ccc34)cc2)CC1 [Compound 68, 1-N′-(4-Fluorophenyl)-1-N-[4-[7-(1H-pyrazol-5-yl)quinolin-4-yl]oxyphenyl]cyclopropane-1,1-dicarboxamide]"
≥ 8.00,7.00 to 8.00,"O=C(Nc1ccc(F)cc1)C1(C(=O)Nc2ccc(Oc3ccnc4cc(-c5cnoc5)ccc34)cc2)CC1 [Compound 57, 1-N′-(4-Fluorophenyl)-1-N-[4-[7-(1,2-oxazol-4-yl)quinolin-4-yl]oxyphenyl]cyclopropane-1,1-dicarboxamide]"
≥ 8.00,7.00 to 8.00,"O=C(Nc1ccc(F)cc1)C1(C(=O)Nc2ccc(Oc3ccnc4cc(-c5ccnnc5)ccc34)cc2)CC1 [Compound 28, 1-N′-(4-Fluorophenyl)-1-N-[4-(7-pyridazin-4-ylquinolin-4-yl)oxyphenyl]cyclopropane-1,1-dicarboxamide]"
7.00 to 8.00,≥ 8.00,"COCCn1cc(-c2ccc3c(Oc4ccc(NC(=O)C5(C(=O)Nc6ccc(F)cc6)CC5)cc4)ccnc3c2)cn1 [Compound 10, 1-N′-(4-Fluorophenyl)-1-N-[4-[7-[1-(2-methoxyethyl)pyrazol-4-yl]quinolin-4-yl]oxyphenyl]cyclopropane-1,1-dicarboxamide]"
≥ 8.00,≥ 8.00,"CCn1cc(-c2ccc3c(Oc4ccc(NC(=O)C5(C(=O)Nc6ccc(F)cc6)CC5)cc4)ccnc3c2)cn1 [Compound 20, 1-N-[4-[7-(1-Ethylpyrazol-4-yl)quinolin-4-yl]oxyphenyl]-1-N′-(4-fluorophenyl)cyclopropane-1,1-dicarboxamide]"
7.00 to 8.00,7.00 to 8.00,"CC(C)(C)n1cc(-c2ccc3c(Oc4ccc(NC(=O)C5(C(=O)Nc6ccc(F)cc6)CC5)cc4)ccnc3c2)cn1 [Compound 23, 1-N-[4-[7-(1-tert-Butylpyrazol-4-yl)quinolin-4-yl]oxyphenyl]-1-N′-(4-fluorophenyl)cyclopropane-1,1-dicarboxamide]"
